In US8735414B2 (priority 2009, dated 2014):

Key:
[1] = test system: bicistronic HCV replicon (replicon RNA, GenBank Accession No. AJ242654); test: HCV Replicon Assay; assay type: cell-based; conditions: Hepatitis C virus, 72 h, read-out: Replicon IC50

| SMILES | IC50 [1] | melting point |
| --- | --- | --- |
| C[C@H](NS(=O)(=O)c1cnc(-c2c(C#N)c3cc(C#N)ccc3n2C2CCCC2)nc1)C(F)(F)F [compound 392, 2-(3,5-dicyano-1-cyclopentyl-1H-indol-2-yl)-N-[(2S)-1,1,1-trifluoropropan-2-yl]pyrimidine-5-sulfonamide] | < 500 nM | 250 to 254 °C |
| N#Cc1c(-c2ccc(S(=O)(=O)NC(CF)CF)cn2)n(C2CCC2)c2cc(F)ccc12 [compound 56, 6-(3-cyano-1-cyclobutyl-6-fluoro-1H-indol-2-yl)-N-(1,3-difluoropropan-2-yl)pyridine-3-sulfonamide] | < 500 nM | 206 to 208 °C |
| Cc1cc2c(cc1F)c(C#N)c(-c1ccc(S(=O)(=O)N[C@H](C)C(F)(F)F)cn1)n2-c1ccccn1 [compound 698, 6-[3-cyano-5-fluoro-6-methyl-1-(pyridin-2-yl)-1H-indol-2-yl]-N-[(2R)-1,1,1-trifluoropropan-2-yl]pyridine-3-sulfonamide] | < 500 nM | 170 to 174 °C |
| Cc1ccc2c(C#N)c(-c3ccc(NS(=O)(=O)C4CC4)cn3)n(C3CCCC3)c2c1 [compound 296, N-[6-(3-cyano-1-cyclopentyl-6-methyl-1H-indol-2-yl)pyridin-3-yl]cyclopropanesulfonamide] | 2000 to 5000 nM | 241 to 245 °C |
| N#Cc1c(-c2ncc(S(=O)(=O)NC(CF)CF)cn2)n(C2CCC2)c2cc(OC(F)F)ccc12 [compound 129, 2-[3-cyano-1-cyclobutyl-6-(difluoromethoxy)-1H-indol-2-yl]-N-(1,3-difluoropropan-2-yl)pyrimidine-5-sulfonamide] | < 500 nM | 205 to 207 °C |
| N#Cc1c(-c2ccc(S(=O)(=O)NC(CF)CF)cn2)n(C2CCC2)c2ccc(OC(F)(F)F)cc12 [compound 25, 6-[3-cyano-1-cyclobutyl-5-(trifluoromethoxy)-1H-indol-2-yl]-N-(1,3-difluoropropan-2-yl)pyridine-3-sulfonamide] | 500 to 2000 nM | 179 to 182 °C |
| Cc1cc2c(cc1F)c(C#N)c(-c1ccc(S(=O)(=O)N[C@@H](C)C(F)(F)F)cn1)n2-c1cscn1 [compound 960, 6-[3-cyano-5-fluoro-6-methyl-1-(1,3-thiazol-4-yl)-1H-indol-2-yl]-N-[(2S)-1,1,1-trifluoropropan-2-yl]pyridine-3-sulfonamide] | < 500 nM | 184 to 189 °C |
| Cc1cc2c(cc1F)c(C#N)c(-c1ccc(S(=O)(=O)NC(C)(C)C)cn1)n2C1CCCC1 [compound 643, N-tert-butyl-6-(3-cyano-1-cyclopentyl-5-fluoro-6-methyl-1H-indol-2-yl)pyridine-3-sulfonamide] | < 500 nM | 208 to 209 °C |
| Cc1cc(F)c2c(C#N)c(-c3ccc(S(=O)(=O)NC4(C(F)(F)F)CC4)cn3)n(C3CCC3)c2c1 [compound 629, 6-(3-cyano-1-cyclobutyl-4-fluoro-6-methyl-1H-indol-2-yl)-N-[1-(trifluoromethyl)cyclopropyl]pyridine-3-sulfonamide] | 2000 to 5000 nM | 241 to 246 °C |
| CCc1cc2c(cc1F)c(C(N)=O)c(-c1ccc(NS(=O)(=O)C(C)(C)C)nc1)n2C1CCCCC1 [compound 1037, 2-{6-[(tert-butylsulfonyl)amino]pyridin-3-yl}-1-cyclohexyl-6-ethyl-5-fluoro-1H-indole-3-carboxamide] | < 500 nM | 297 to 299 °C |
| Cc1ccc2c(C#N)c(-c3ccc(S(=O)(=O)NC(C)(C)C(F)(F)F)cn3)n(C3CCC3)c2c1F [compound 578, 6-(3-cyano-1-cyclobutyl-7-fluoro-6-methyl-1H-indol-2-yl)-N-(1,1,1-trifluoro-2-methylpropan-2-yl)pyridine-3-sulfonamide] | < 500 nM | 168 to 175 °C |
| CC(C)(C)S(=O)(=O)Nc1ccc(-c2c(C(N)=O)c3cc(F)c(OC(F)F)cc3n2C2CCCCC2)cn1 [compound 1063, 2-{6-[(tert-butylsulfonyl)amino]pyridin-3-yl}-1-cyclohexyl-6-(difluoromethoxy)-5-fluoro-1H-indole-3-carboxamide] | < 500 nM | 296 to 297 °C |
| C[C@H](NS(=O)(=O)c1cnc(-c2c(C#N)c3cc(F)ccc3n2C2CCCC2)nc1)C(F)(F)F [compound 547, 2-(3-cyano-1-cyclopentyl-5-fluoro-1H-indol-2-yl)-N-[(2S)-1,1,1-trifluoropropan-2-yl]pyrimidine-5-sulfonamide] | < 500 nM | 214 to 218 °C |
| C[C@H](NS(=O)(=O)c1ccc(-c2c(C#N)c3ccc(OC(F)(F)F)cc3n2C2CCCC2)nc1)C(F)(F)F [compound 358, 6-[3-cyano-1-cyclopentyl-6-(trifluoromethoxy)-1H-indol-2-yl]-N-[(2S)-1,1,1-trifluoropropan-2-yl]pyridine-3-sulfonamide] | < 500 nM | 168 to 170 °C |
| C[C@@H](C1CC1)n1c(-c2ccc(NS(=O)(=O)C(C)(C)C)nc2)c(C(N)=O)c2cc(F)c(OC(F)F)cc21 [compound 1081, 2-{6-[(tert-butylsulfonyl)amino]pyridin-3-yl}-1-[(1S)-1-cyclopropylethyl]-6-(difluoromethoxy)-5-fluoro-1H-indole-3-carboxamide] | < 500 nM | 239 to 241 °C |
| COc1ccc2c(C#N)c(-c3ncc(S(=O)(=O)N[C@@H](C)C4CC4)cn3)n(C3CCC3)c2c1 [compound 205, 2-(3-cyano-1-cyclobutyl-6-methoxy-1H-indol-2-yl)-N-[(1S)-1-cyclopropylethyl]pyrimidine-5-sulfonamide] | < 500 nM | 204 to 206 °C |
| CCc1cc2c(C#N)c(-c3ccc(S(=O)(=O)N[C@@H](C)C(F)(F)F)cn3)n(C3CCC3)c2cc1OC(F)F [compound 647, 6-[3-cyano-1-cyclobutyl-6-(difluoromethoxy)-5-ethyl-1H-indol-2-yl]-N-[(2S)-1,1,1-trifluoropropan-2-yl]pyridine-3-sulfonamide] | 500 to 2000 nM | 160 to 162 °C |
| CCc1cc2c(cc1F)c(C(N)=O)c(-c1ccc(S(=O)(=O)N[C@@H](C)C(F)(F)F)cn1)n2-c1ccc(C)cc1 [compound 1021, 6-ethyl-5-fluoro-1-(4-methylphenyl)-2-(5-{[(2S)-1,1,1-trifluoropropan-2-yl]sulfamoyl}pyridin-2-yl)-1H-indole-3-carboxamide] | < 500 nM | 228 to 233 °C |
| Cc1cc2c(cc1F)c(C#N)c(-c1ccc(S(=O)(=O)N[C@@H](C)C(F)(F)F)cn1)n2-c1cscc1C [compound 1056, 6-[3-cyano-5-fluoro-6-methyl-1-(4-methylthiophen-3-yl)-1H-indol-2-yl]-N-[(2S)-1,1,1-trifluoropropan-2-yl]pyridine-3-sulfonamide] | < 500 nM | 223.2 to 227.1 °C |
| COc1ccc2c(c1)c(C#N)c(-c1ccc(S(=O)(=O)NC(CF)CF)cn1)n2C1CCC1 [compound 550, 6-(3-cyano-1-cyclobutyl-5-methoxy-1H-indol-2-yl)-N-(1,3-difluoropropan-2-yl)pyridine-3-sulfonamide] | < 500 nM | 149 to 150 °C |
| N#Cc1c(-c2ncc(S(=O)(=O)NC(CF)CF)cn2)n(C2CCCC2)c2cc(OC(F)(F)F)ccc12 [compound 178, 2-[3-cyano-1-cyclopentyl-6-(trifluoromethoxy)-1H-indol-2-yl]-N-(1,3-difluoropropan-2-yl)pyrimidine-5-sulfonamide] | < 500 nM | 181 to 187 °C |
| Cc1cc2c(cc1F)c(C#N)c(-c1ccc(S(=O)(=O)N[C@@H](C)C(F)(F)F)cn1)n2-c1cc(F)cc(F)n1 [compound 1001, 6-[3-cyano-1-(4,6-difluoropyridin-2-yl)-5-fluoro-6-methyl-1H-indol-2-yl]-N-[(2S)-1,1,1-trifluoropropan-2-yl]pyridine-3-sulfonamide] | < 500 nM | 190.2 to 196.8 °C |
| CCn1c(-c2ccc(NS(=O)(=O)C3CC3)cn2)c(C#N)c2ccc(OC(C)C)cc21 [compound 285, N-{6-[3-cyano-1-ethyl-6-(propan-2-yloxy)-1H-indol-2-yl]pyridin-3-yl}cyclopropanesulfonamide] | 500 to 2000 nM | 180 to 185 °C |
| C[C@H](NS(=O)(=O)c1cnc(-c2c(C#N)c3ccc(F)cc3n2C2CCCCC2)nc1)C1CC1 [compound 499, 2-(3-cyano-1-cyclohexyl-6-fluoro-1H-indol-2-yl)-N-[(1S)-1-cyclopropylethyl]pyrimidine-5-sulfonamide] | < 500 nM | 169 to 170 °C |
| N#Cc1c(-c2ccc(S(=O)(=O)NC3CC(F)(F)C3)cn2)n(C2CCC2)c2cc(Cl)ccc12 [compound 244, 6-(6-chloro-3-cyano-1-cyclobutyl-1H-indol-2-yl)-N-(3,3-difluorocyclobutyl)pyridine-3-sulfonamide] | 2000 to 5000 nM | 135 to 138 °C |
| Cc1c(F)cc2c(C#N)c(-c3ccc(S(=O)(=O)NC4(C(F)(F)F)CC4)cn3)n(C3CCC3)c2c1F [compound 667, 6-(3-cyano-1-cyclobutyl-5,7-difluoro-6-methyl-1H-indol-2-yl)-N-[1-(trifluoromethyl)cyclopropyl]pyridine-3-sulfonamide] | < 500 nM | 235 to 241 °C |
| CC(C)NS(=O)(=O)c1cnc(-c2c(C(N)=O)c3ccc(OC(F)F)cc3n2C2CCCCC2)nc1 [compound 747, 1-cyclohexyl-6-(difluoromethoxy)-2-[5-(propan-2-ylsulfamoyl)pyrimidin-2-yl]-1H-indole-3-carboxamide] | < 500 nM | 216 to 218 °C |
| CCc1cc2c(cc1F)c(C#N)c(-c1ccc(S(=O)(=O)N[C@@H](C)C(F)(F)F)cn1)n2-c1ccc(Cl)cc1 [compound 1003, 6-[1-(4-chlorophenyl)-3-cyano-6-ethyl-5-fluoro-1H-indol-2-yl]-N-[(2S)-1,1,1-trifluoropropan-2-yl]pyridine-3-sulfonamide] | < 500 nM | 279 to 289 °C |
